{"source": "patent EP4420661B1", "about": "“SMALL MOLECULES TARGETING GLYCOPROTEIN VI AS ANTIPLATELET AGENTS FOR USE IN THE PREVENTION AND/OR TREATMENT OF THROMBOSIS AND ASSOCIATED PATHOLOGIES” (Universidade de Santiago de Compostela, priority 2023, dated 2024)", "key": {"human platelets": {"tested_on": "human platelets", "assay": "platelet spreading assay on CRP (phalloidin staining, confocal microscopy)", "type": "cell-based", "conditions": "10µM; CRP 1µg/mL; Figure 4", "protocol": "Platelet spreading experiments were carried out to assess the potency of the compounds of formula (I), exemplified by compounds (If)and (Ih).\nPlatelets can change from a rounded, non-adherent form to adhere and flatten shape when exposed to ligands. This \"spreading\" effect can lead to the formation of cytoskeletal protein rearrangement. Platelet adhesion and extent of spreading (area covered) can be quantified.\nBriefly, human platelets from healthy individuals were isolated and washed. Then, platelets were incubated with the inhibitors at 10µM for 5 min at room temperature and then for 45 min at 37°C in coverslips coated with 1µg/mL of agonist (CRP).\nThe images of platelet shape given by phalloidin staining were acquired by confocal fluorescence microscopy and the area analyzed by ImageJ [Onselaer et al., (2020)]."}, "[1]": {"assay": "plasmatic stability, dog plasma", "type": "in vitro ADME", "protocol": "Rat, human, mouse and dog plasma pooled from healthy donors extracted in citrate tubes was employed in the assay.\n[…] Then 300µl Acetonitrile were added for precipitating plasma protein, and the plate was centrifuged at 4000 g for 60 min at 4°C.\nSupernatant was taken and analyzed by UPLC/MS/MS for sample quantification. Stationary phase: Reverse phase ACQUITY BEH C18 1.7µm 2.1x50mm (Waters) Mobile phase: 0.1% Formic acid water/0.1% formic acid in acetonitrile Gradient: Table 4: UPLC gradient / Plasmatic stability assay\nThe chromatographic equipment employed was an UPLC QSM Waters Acquity. Compound concentrations were calculated from the MS peak areas."}, "[2]": {"assay": "metabolic stability, human microsomes", "type": "in vitro ADME", "protocol": "Microsomes from Tebu-bio Xenotech were employed in the assay, having a content of 20 mg/ml of protein. The following quantities were added to each well of a 96-well microplate. Table 6: Metabolic stability assay.\nPlates were incubated at 37°C and 75 µL samples were taken at 0, 10, 20, 40 and 60 minutes.\nSamples were transferred to a microplate and 75 µl Acetonitrile + IS(Rolipram) were added for inactivating the microsomes, and 30 µl of H2O with 0.5% formic acid for improving the chromatographic conditions and kept at 4°C. When all the samples were taken the plate was centrifuged at […] for 30 min at 15°C. Stationary phase: ACQUITY BEH C18 1.7µm 2.1x50mm (Waters) Mobile phase: A: 0.1% formic; B: acetonitrile+0.1% formic acid Gradient: Table 6: UPLC gradient / Metabolic stability assay\nMetabolic stability was calculated from the logarithm of the remaining compound at each of the times evaluated."}}, "data": [{"smiles": "O=C(Cc1ccc2c(c1)OCCO2)Nc1nc(-c2ccc3c(c2)CCC(=O)N3)cs1", "note": "[Compound (If)]", "values": [{"measurement": "platelet spreading on CRP (in words)", "setting": "human platelets", "value": "inhibition of platelet spreading on CRP"}, {"measurement": "Plasmatic stability", "setting": "[1]; 10µM, t 0 min", "value": 100.0}, {"measurement": "Plasmatic stability", "setting": "[1]; 10µM, t 60 min", "value": 89.2}, {"measurement": "Plasmatic stability", "setting": "[1]; 10µM, t 120 min", "value": 85.1}, {"measurement": "Plasmatic stability", "setting": "[1]; 10µM, t 360 min", "value": 83.5}, {"measurement": "Plasmatic stability", "setting": "[1]; 100µM, t 0 min", "value": 100.0}, {"measurement": "Plasmatic stability", "setting": "[1]; 100µM, t 60 min", "value": 101.4}, {"measurement": "Plasmatic stability", "setting": "[1]; 100µM, t 120 min", "value": 106.5}, {"measurement": "Plasmatic stability", "setting": "[1]; 100µM, t 360 min", "value": 102.4}, {"measurement": "half-life", "setting": "[2]", "value": 46.9, "unit": "min"}, {"measurement": "microsomal CLint", "setting": "[2]", "value": 10.1, "unit": "µL/min/mg"}, {"measurement": "% remanent (*)", "setting": "[2]; (*) sampling time 60 min", "value": 41.21, "unit": "%"}]}]}
